Measured values from patent US20100273769A1, “COMPOSITION AND METHOD FOR THE TREATMENT OF PARKINSON'S DISEASE” (priority 2009, published 2010).
Read-outs that look alike come from different tables or passages of the source.

What was measured:
[1] = molecular target: Cdk1 (Homo sapiens, UniProt P06493); assay: Kinase specificity, Cdk1; format: biochemical; conditions: 100 μM ATP
[2] = system: R1441C LRRK2 transgenic C. elegans; assay: Food-sensing (slowing) response in LRRK2 transgenic C. elegans; format: in vivo; conditions: Caenorhabditis elegans, 96 h; exposure through larval stages to adult stage day 4; read-out: Half-maximal restoration of the slowing response after food exposure
Experimental: Dopaminergic neurons in C. elegans are involved in food sensing behavior such that in the absence of food worms move more rapidly, as assessed by determining their bending frequency on an agar plate not supplied with food. In an established assay the animals are then exposed to food, and the difference in motility is recorded in the form of bending frequency [Sawin et al., Neuron 26, 619-631 (2000)]. […] In approximate synchrony with the dopaminergic neurodegeneration this slowing response is essentially eliminated after 4 days. […] The slowing response can be reconstituted to a substantial degree by supplementation with dopamine, confirming that the phenotype is due to loss of dopaminergic input (FIG. 5).
The clear-cut functional phenotype of this model can be used to determine the efficacy of LRRK2 kinase inhibitors and the accurate determination of their potency in a biological context. […] The potency is expressed as the half-maximal restoration of the slowing response. […]
The functional consequence of dopaminergic neurodegeneration was assayed using the food-sensing response resulting in a slowing of motility after food exposure as assessed by the frequency of body bending within 20 second intervals in groups of 10 animals [Sawin et al., Neuron 26, 619-631 (2000)]. […]

[3] = molecular target: T1, wildtype human LRRK2 (Homo sapiens, UniProt Q5S007); assay: Adapta assay, inhibition of wildtype human LRRK2 kinase fragment with LRRKtide; format: biochemical
T1 construct: human LRRK2 protein fragment encompassing amino acids 1326 to 2527; GST; made in house
T1 sequence (Q5S007 1326-2527): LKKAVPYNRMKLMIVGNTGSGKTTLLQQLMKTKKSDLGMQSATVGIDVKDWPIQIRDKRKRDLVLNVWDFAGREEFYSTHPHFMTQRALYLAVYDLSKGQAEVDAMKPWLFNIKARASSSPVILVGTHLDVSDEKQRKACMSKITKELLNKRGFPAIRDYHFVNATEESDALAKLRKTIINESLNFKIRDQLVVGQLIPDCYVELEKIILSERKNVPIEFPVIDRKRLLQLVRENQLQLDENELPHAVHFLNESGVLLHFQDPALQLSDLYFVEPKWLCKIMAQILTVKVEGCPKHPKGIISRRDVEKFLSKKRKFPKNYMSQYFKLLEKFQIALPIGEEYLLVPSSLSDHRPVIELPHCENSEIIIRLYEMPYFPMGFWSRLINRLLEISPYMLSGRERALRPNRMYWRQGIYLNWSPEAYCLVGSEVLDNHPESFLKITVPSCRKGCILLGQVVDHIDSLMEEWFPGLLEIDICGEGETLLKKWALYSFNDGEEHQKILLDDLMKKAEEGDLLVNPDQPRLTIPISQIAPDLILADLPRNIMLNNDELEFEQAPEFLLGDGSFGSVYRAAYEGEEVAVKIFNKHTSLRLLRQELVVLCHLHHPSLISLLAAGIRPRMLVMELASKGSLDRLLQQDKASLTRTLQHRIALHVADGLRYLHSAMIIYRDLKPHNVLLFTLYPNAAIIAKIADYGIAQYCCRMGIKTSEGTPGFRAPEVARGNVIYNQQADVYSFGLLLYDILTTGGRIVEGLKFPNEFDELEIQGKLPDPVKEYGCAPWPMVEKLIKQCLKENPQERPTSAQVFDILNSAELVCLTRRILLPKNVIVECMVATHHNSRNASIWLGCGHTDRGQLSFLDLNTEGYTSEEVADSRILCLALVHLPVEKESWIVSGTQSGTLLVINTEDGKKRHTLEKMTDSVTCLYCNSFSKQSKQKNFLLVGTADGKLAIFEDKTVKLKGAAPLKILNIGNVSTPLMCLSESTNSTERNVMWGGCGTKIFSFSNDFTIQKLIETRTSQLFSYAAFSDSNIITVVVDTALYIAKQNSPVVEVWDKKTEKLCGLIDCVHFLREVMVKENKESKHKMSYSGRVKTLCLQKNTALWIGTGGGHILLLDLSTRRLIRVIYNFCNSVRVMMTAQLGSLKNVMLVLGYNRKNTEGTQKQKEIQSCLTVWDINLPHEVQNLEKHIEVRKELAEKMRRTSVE

[4] = rodents, in vivo

Sequence of Cdk1 (P06493 whole entry, species assumed): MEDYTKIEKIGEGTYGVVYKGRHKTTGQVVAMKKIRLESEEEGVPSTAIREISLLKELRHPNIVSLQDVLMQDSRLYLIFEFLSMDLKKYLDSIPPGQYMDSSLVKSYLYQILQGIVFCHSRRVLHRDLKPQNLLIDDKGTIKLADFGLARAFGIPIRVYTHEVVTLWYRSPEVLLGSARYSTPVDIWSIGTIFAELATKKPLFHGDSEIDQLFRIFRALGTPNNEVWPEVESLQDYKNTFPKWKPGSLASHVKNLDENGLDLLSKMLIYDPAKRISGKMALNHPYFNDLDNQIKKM
Sequence of Cdk1 (P14635 whole entry partner, species assumed): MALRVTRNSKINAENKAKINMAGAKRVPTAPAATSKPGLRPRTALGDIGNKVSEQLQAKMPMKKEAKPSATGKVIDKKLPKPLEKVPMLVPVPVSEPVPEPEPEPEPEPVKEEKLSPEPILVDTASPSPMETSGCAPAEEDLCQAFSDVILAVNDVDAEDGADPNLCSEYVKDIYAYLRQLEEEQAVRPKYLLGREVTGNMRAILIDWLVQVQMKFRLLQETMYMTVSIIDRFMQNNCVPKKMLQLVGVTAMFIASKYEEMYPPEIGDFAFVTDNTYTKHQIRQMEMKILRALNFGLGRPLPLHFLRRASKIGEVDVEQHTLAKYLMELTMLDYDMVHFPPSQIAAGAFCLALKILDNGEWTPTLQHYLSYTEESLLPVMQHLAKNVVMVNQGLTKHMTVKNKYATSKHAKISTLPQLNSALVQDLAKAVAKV

For `CNC(=O)[C@@]1(N)CC2OC1(C)n1c3ccccc3c3c4c(c5c6ccccc6n2c5c31)C(=O)NC4` (stereo partly drawn) [Compound 3], the IC50 [1] was 17 nM, the EC50 [2] was 30 nM and the “IC50 relative to nominal kinase concentration, wild-type LRRK2” value ([3]; 100 μM ATP, FIG. 3A) was “substantially below the nominal concentration of the kinase itself”. The IC50 ([3]; 100 μM ATP, read-out: LRRK2) was 1.1 nM, the IC50 ([3]; 100 microM ATP, read-out: LRRK2 inhibitory potency (essentially receptor-limited)) was at most 1 nM and the “Plasma concentration sustained without detectable toxicity” value [4] was 600 to 800 nM.
